Laboratory results as given in patent US20230172204A1 (BASF SE, priority 2020, published 2023).
Read-outs that look alike come from different tables or passages of the source.

Experiments:
[1] = tested on: Leptosphaeria nodorum; assay: Micro titer plate test against Leptosphaeria nodorum causing wheat leaf spots (LEPTNO); type: cell-based; conditions: for activity at 0.063 ppm: Parastagonospora nodorum, 168 h, read-out: Fungal growth (%) LEPTNO
[2] = tested on: Phakopsora pachyrhizi (F129L); assay: Protective control of soybean rust on soybeans (PHAKPA P2); type: in vivo
[3] = tested on: Microdochium nivale; assay: Micro titer plate test against Microdochium nivale causing snow mould (MONGNI); type: cell-based; conditions: for activity at 0.016 ppm: Microdochium nivale, 168 h, read-out: Fungal growth (%) MONGNI
[4] = tested on: Phakopsora pachyrhizi (F129L); assay: Protective control of soybean rust on soybeans (PHAKPA P6); type: in vivo; conditions: for PHAKPA (F129L) Disease level (%) P6 at 4 ppm / PHAKPA (F129L) Disease level (%) P6 at 16 ppm: P6 protective, % diseased leaf area
[5] = tested on: Cercospora sojina; assay: microbe, parasite or virus in culture; type: cell-based; conditions: for activity at 4 ppm: Cercospora sojina, 168 h, read-out: Fungal growth (%) CERCSO
[6] = tested on: Pyricularia oryzae; assay: microbe, parasite or virus in culture; type: cell-based; conditions: Pyricularia oryzae, 168 h, read-out: Fungal growth (%) PYRIOR
[7] = tested on: Alternaria solani (wt); assay: microbe, parasite or virus in culture; type: cell-based; conditions: Alternaria solani, 168 h; 0.016 ppm; read-out: Fungal growth (%) ALTESO wt
[8] = tested on: Alternaria solani (F129L); assay: Micro titer plate test against Alternaria solani causing early blight (ALTESO F129L); type: cell-based; conditions: Alternaria solani, 168 h
[9] = tested on: Septoria tritici; assay: microbe, parasite or virus in culture; type: cell-based; conditions: Zymoseptoria tritici, 168 h, read-out: Fungal growth (%) SEPTTR
[10] = tested on: Pyrenophora teres (wt); assay: Micro titer plate test against Pyrenophora teres causing net blotch on barley (PYRNTE wt); type: cell-based; conditions: 168 h, read-out: Fungal growth (%) PYRNTE wt
[11] = P2 protective, % diseased leaf area
[12] = 0.016 ppm, read-out: Fungal growth (%) ALTESO F129L

SMILES: CNC(=O)/C(=N/OC)c1cccc(C)c1CO/N=C(\C)c1cccc(C(F)(F)F)c1 [Ex. 8]
- Fungal growth (%) LEPTNO [1]: 70%
- activity at 0.063 ppm [1]: 70%
- PHAKPA (F129L) Disease level (%) P2 at 1 ppm ([2]; P2 protective, 1 ppm, % diseased leaf area): 6%
- PHAKPA (F129L) Disease level (%) P2 at 4 ppm [2, 11]: 1%
- % PHAKPA (F129L) Disease level P2 at 4 ppm ([2]; protective P2, 4 ppm, soybean rust F129L): 4%
- % PHAKPA (F129L) Disease level P2 at 16 ppm ([2]; protective P2, 16 ppm, soybean rust F129L): 0%
- Fungal growth (%) MONGNI [3]: 54%
- activity at 0.016 ppm [3]: 54%
- % PHAKPA (F129L) Disease level P6 at 4 ppm ([4]; protective P6, 4 ppm, soybean rust F129L): 5%
- % PHAKPA (F129L) Disease level P6 at 16 ppm ([4]; protective P6, 16 ppm, soybean rust F129L): 0%
- Fungal growth (%) CERCSO ([5]; 4 ppm): 27%
- activity at 4 ppm [5]: 27%
- activity at 0.016 ppm [6]: 13%
- activity at 0.016 ppm [7]: 56%
- activity at 0.016 ppm ([8]; read-out: Fungal growth (%) ALTESO F129L, 0.016 ppm): 55%
- activity at 0.25 ppm [9]: 57%

SMILES: Cc1cccc(-n2nnn(C)c2=O)c1COc1ccn(-c2ccc(Cl)cc2)n1 [drawing 928]
- activity at 0.016 ppm [3]: 97%
- activity at 0.016 ppm [6]: 87%
- activity at 0.016 ppm [7]: 98%
- activity at 0.016 ppm [8, 12]: 100%

SMILES: CO/N=C(/C(=O)OC)c1cccc(C)c1CO/N=C(\C)c1cccc(OC(F)(F)F)c1 [drawing 934]
- activity at 0.025 ppm ([10]; 0.025 ppm): 84%
- activity at 4 ppm ([5]; 4 ppm): 33%
- activity at 0.016 ppm [6]: 100%
- activity at 0.016 ppm [7]: 94%

SMILES: CO/N=C(/C(=O)OC)c1cccc(C)c1CO/N=C(\OC)c1cccc(C(F)(F)F)c1 [drawing 942]
- activity at 0.063 ppm [1]: 100%
- activity at 4 ppm ([5]; 4 ppm): 56%
- activity at 0.016 ppm [6]: 58%

SMILES: CNC(=O)/C(=N/OC)c1cccc(C)c1CO/N=C(\SC)c1cccc(C(F)(F)F)c1 [drawing 944]
- activity at 0.063 ppm [1]: 93%
- activity at 0.016 ppm [3]: 84%
- activity at 4 ppm ([5]; 4 ppm): 66%
- activity at 0.016 ppm [6]: 49%
- activity at 0.016 ppm [8, 12]: 85%

SMILES: CNC(=O)/C(=N/OC)c1cccc(C)c1CO/N=C(\OC)c1cccc(C(F)(F)F)c1 [drawing 946]
- activity at 0.063 ppm [1]: 95%
- activity at 0.016 ppm [6]: 39%
- activity at 0.016 ppm [7]: 100%
- activity at 0.016 ppm [8, 12]: 87%
- activity at 0.25 ppm [9]: 77%

SMILES: CNC(=O)/C(=N/OC)c1cccc(C)c1CO/N=C(\OC)c1cccc(C(F)(F)F)c1 [drawing 948]
- activity at 0.016 ppm [3]: 80%
- activity at 4 ppm ([5]; 4 ppm): 60%

SMILES: CO/N=C(/C(=O)OC)c1cccc(C)c1CO/N=C(/c1cccc(Cl)c1)C1CC1 [drawing 964]
- activity at 0.25 ppm ([10]; 0.25 ppm): 69%
- activity at 4 ppm ([5]; 4 ppm): 61%

SMILES: CO/C=C(/C(=O)OC)c1ccccc1CO/N=C(\C)c1cccc(C(F)(F)F)c1 [reference compound]
- PHAKPA (F129L) Disease level (%) P2 at 4 ppm [2, 11]: 6%
- PHAKPA (F129L) Disease level (%) P6 at 4 ppm [4]: 30%

SMILES: CNC(=O)/C(=N/OC)c1ccccc1CO/N=C(\C)c1cccc(Br)c1 [reference compound]
- PHAKPA (F129L) Disease level (%) P2 at 4 ppm [2, 11]: 27%
- PHAKPA (F129L) Disease level (%) P6 at 4 ppm [4]: 70%

SMILES: CCc1ccc(/C(C)=N/OCc2ccccc2/C(=N\OC)C(=O)NC)cc1 [reference compound]
- PHAKPA (F129L) Disease level (%) P2 at 4 ppm [2, 11]: 35%
- PHAKPA (F129L) Disease level (%) P6 at 4 ppm [4]: 83%

SMILES: CNC(=O)/C(=N/OC)c1ccccc1CO/N=C(\C)c1cc(Cl)ccc1Cl [reference compound]
- PHAKPA (F129L) Disease level (%) P2 at 4 ppm [2, 11]: 87%
- PHAKPA (F129L) Disease level (%) P6 at 4 ppm [4]: 97%

SMILES: CC/C(=N\OCc1ccccc1/C(=N\OC)C(=O)NC)c1cccc(C(F)(F)F)c1 [reference compound]
- PHAKPA (F129L) Disease level (%) P2 at 4 ppm [2, 11]: 60%
- PHAKPA (F129L) Disease level (%) P6 at 4 ppm [4]: 70%

SMILES: CNC(=O)/C(=N/OC)c1ccccc1CO/N=C(/c1ccccc1)C(F)F [reference compound]
- PHAKPA (F129L) Disease level (%) P2 at 4 ppm [2, 11]: 43%
- PHAKPA (F129L) Disease level (%) P6 at 4 ppm [4]: 90%

SMILES: CNC(=O)/C(=N/OC)c1ccccc1CO/N=C(\C)c1ccccc1Br [reference compound]
- PHAKPA (F129L) Disease level (%) P2 at 16 ppm [2, 11]: 23%
- PHAKPA (F129L) Disease level (%) P6 at 16 ppm [4]: 28%

SMILES: CNC(=O)/C(=N/OC)c1ccccc1CO/N=C(\C)c1ccccc1OC [reference compound]
- PHAKPA (F129L) Disease level (%) P2 at 16 ppm [2, 11]: 87%
- PHAKPA (F129L) Disease level (%) P6 at 16 ppm [4]: 80%

SMILES: CNC(=O)/C(=N/OC)c1ccccc1CO/N=C(\C)c1ccc(-c2ccccc2)cc1 [reference compound]
- PHAKPA (F129L) Disease level (%) P2 at 16 ppm [2, 11]: 37%
- PHAKPA (F129L) Disease level (%) P6 at 16 ppm [4]: 28%

SMILES: CNC(=O)/C(=N/OC)c1ccccc1CO/N=C(\C)c1ccc(C#N)cc1 [reference compound]
- PHAKPA (F129L) Disease level (%) P2 at 16 ppm [2, 11]: 37%
- PHAKPA (F129L) Disease level (%) P6 at 16 ppm [4]: 63%

SMILES: CNC(=O)/C(=N/OC)c1ccccc1CO/N=C(\C)c1ccc(Cl)c(C(F)(F)F)c1 [reference compound]
- PHAKPA (F129L) Disease level (%) P2 at 16 ppm [2, 11]: 11%
- PHAKPA (F129L) Disease level (%) P6 at 16 ppm [4]: 4%

SMILES: CNC(=O)/C(=N/OC)c1ccccc1CO/N=C(\C)c1cccc(C(F)F)c1 [reference compound]
- PHAKPA (F129L) Disease level (%) P2 at 16 ppm [2, 11]: 16%
- PHAKPA (F129L) Disease level (%) P6 at 16 ppm [4]: 35%
